These results are taken from ChEMBL document CHEMBL4622928, “Discovery of 5-(4-methylpiperazin-1-yl)-2-nitroaniline derivatives as a new class of SIRT6 inhibitors” (Bioorg Med Chem Lett, 2020).

The target of this test is NAD-dependent protein deacylase sirtuin-6 (Homo sapiens, UniProt Q8N6T7). In words: Inhibition of SIRT6 (unknown origin) using Ac-RYQK(Ac)-AMC as substrate by Fluor de Lys assay.
NAD-dependent protein deacylase sirtuin-6, sequence (Q8N6T7 whole entry): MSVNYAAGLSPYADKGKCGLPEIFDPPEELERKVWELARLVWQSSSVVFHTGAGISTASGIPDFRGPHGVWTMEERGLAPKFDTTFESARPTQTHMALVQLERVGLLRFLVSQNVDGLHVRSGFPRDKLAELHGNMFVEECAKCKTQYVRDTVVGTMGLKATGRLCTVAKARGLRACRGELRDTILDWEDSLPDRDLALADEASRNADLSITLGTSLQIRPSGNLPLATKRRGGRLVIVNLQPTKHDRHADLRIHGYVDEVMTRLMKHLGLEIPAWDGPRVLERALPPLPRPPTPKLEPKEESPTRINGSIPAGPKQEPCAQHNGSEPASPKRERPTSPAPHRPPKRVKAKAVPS
Consider `CN1CCN(c2ccc([N+](=O)[O-])c(O)c2)CC1`, for which 11 µM corresponded to half-maximal inhibition (IC50). That is a double-digit micromolar value. In turn, `CN1CCN(c2ccc([N+](=O)[O-])c(NC(=O)c3cc(Cl)nc4ccccc34)c2)CC1` showed an IC50 of 12.4 µM. Compound `CN1CCN(c2ccc([N+](=O)[O-])c(C(F)(F)F)c2)CC1` returned an IC50 of 21.1 µM.

Turning to `CN1CCN(c2ccc([N+](=O)[O-])c(NCc3ccccc3)c2)CC1`, the midpoint of inhibition, the IC50, lay at 12.5 µM. Regarding `CN1CCN(c2ccc([N+](=O)[O-])cc2)CC1`, the IC50 was found to be 21.9 µM. Consider `CN1CCN(c2ccc([N+](=O)[O-])c(C(=O)NCc3ccccc3)c2)CC1`, for which half-maximal inhibition (IC50) required 17.5 µM. Compound `CN1CCN(c2ccc([N+](=O)[O-])c(C(=O)Nc3ccc(Oc4ccccc4)cc3)c2)CC1` had an IC50 of 20.9 µM. `COC(=O)c1cc(N2CCN(C)CC2)ccc1[N+](=O)[O-]` registered an IC50 of 9.46 µM. As for `COc1cc(N2CCN(C)CC2)ccc1[N+](=O)[O-]`, it took 9.09 µM to reach half-maximal inhibition (IC50). This IC50 and that of the compound before are within 1.5-fold of each other. In the case of `CN1CCN(c2ccc([N+](=O)[O-])c(C(=O)Nc3cccc4ccccc34)c2)CC1` it was 16.8 µM.

By IC50 is commonly meant the concentration at which inhibition is half-maximal. A low value points to greater potency.
